From ChEMBL document CHEMBL1149235, “Tetrahydronaphthalene-derived amino alcohols and amino ketones as potent and selective inhibitors of the delayed rectifier potassium current IKs” (Bioorg Med Chem Lett, 2004)

Key:
[1] = Inhibitory activity against slow component of delayed rectifier potassium current IKs in guinea pig ventricular myocytes; type: cell-based, Cavia porcellus, Ventricular myocyte
[2] = Inhibition of rapid component of delayed rectifier potassium current IKr in guinea pig ventricular myocytes; type: cell-based, Cavia porcellus, Ventricular myocyte
[3] = Cavia porcellus, Ventricular myocyte

SMILES | IC50 [1, 3] [nM] | IC50 ([1]; ventricular myocyte) [nM] | other results
O=C1c2ccc(OCc3cccnc3)cc2CCC1CCN1CCC(c2ccccc2)CC1 (stereo unspecified) | 380 | – | –
COc1ccc2c(c1)CCC(CCN1CCC(c3ccccc3)CC1)C2=O (stereo in doubt; 8a) | – | 400 | IC50 [2, 3]: 1700 nM
O=C1c2ccc(OCc3ccc(-c4ccccc4)cc3)cc2CCC1CCN1CCC(c2ccccc2)CC1 (stereo unspecified) | 1000 | – | –
OC1c2ccc(OCc3ccccc3)cc2CCC1CCN1CCC(c2ccccc2)CC1 (stereo in doubt; 7b) | – | 150 | IC50 [2, 3]: 170 nM
O=C1c2ccc(OCc3ccccc3-c3ccccc3)cc2CCC1CCN1CCC(c2ccccc2)CC1 (stereo in doubt; 10d) | – | 30 | IC50 ([2]; ventricular myocyte): 260 nM
O=C1c2ccc(OCc3ccncc3)cc2CCC1CCN1CCC(c2ccccc2)CC1 (stereo unspecified) | 200 | – | –
O=C1c2ccc(OCc3cccc(-c4ccccc4)c3)cc2CCC1CCN1CCC(c2ccccc2)CC1 (stereo unspecified) | 470 | – | –
O[C@@H]1c2ccc(OCc3ccccc3-c3ccccc3)cc2CC[C@H]1CCN1CCC(c2ccccc2)CC1 (stereo in doubt; 14a) | – | 37 | –
O=C1c2ccc(Oc3ccccc3)cc2CCC1CCN1CCC(c2ccccc2)CC1 (stereo unspecified) | 1500 | – | –
O=C1c2ccc(OCc3ccccc3-c3ccccc3)cc2CCC1CCN1CCC(c2ccccc2)CC1 (single isomer, unassigned) | – | 340 | IC50 ([2]; ventricular myocyte): 1600 nM
O[C@@H]1c2ccc(OCc3ccccc3-c3ccccc3)cc2CC[C@H]1CCN1CCC(c2ccccc2)CC1 (stereo in doubt) | – | 1000 | –
COc1ccc2c(c1)CCC(CCN1CCC(c3ccccc3)CC1)C2=O (single isomer, unassigned) | – | 1700 | –
OC1c2ccc(OCc3ccccc3)cc2CCC1CCN1CCC(c2ccccc2)CC1 (single isomer, unassigned) | – | 1300 | IC50 ([2]; ventricular myocyte): 110 nM
O[C@H]1c2ccc(OCc3ccccc3-c3ccccc3)cc2CC[C@H]1CCN1CCC(c2ccccc2)CC1 | 390 | – | –
COc1ccc2c(c1)CCC(CN1CCC(c3ccccc3)CC1)C2=O (stereo unspecified) | 5000 | – | IC50 [2, 3]: 4000 nM
O=C1c2ccc(OCc3ccccc3)cc2CCC1CCN1CCC(c2ccccc2)CC1 (stereo in doubt; 8b) | – | 69 | IC50 ([2]; ventricular myocyte): 160 nM
O=C1c2ccc(OCc3ccccn3)cc2CCC1CCN1CCC(c2ccccc2)CC1 (stereo unspecified) | 1300 | – | –
O=C1c2ccc(OCc3ccccc3)cc2CCC1CC(=O)N1CCC(c2ccccc2)CC1 (stereo unspecified) | > 30000 | – | –
O=C1c2ccc(-c3ccccc3)cc2CCC1CCN1CCC(c2ccccc2)CC1 (stereo unspecified) | 2400 | – | –
